Data as given in EPA's ToxValDB 9.5 (doi:10.2903/j.efsa.2018.5251).

Legend:
Hypoaspis aculeifer = assay: LR50; higher = less toxic; details: acute
Colinus virginianus = details: acute; oral; mortality
Lepomis macrochirus = details: acute; duration: 96 hours
Tagia sp. = details: for LC50: acute; for NOEC: chronic/long-term, duration: 8 weeks
Coturnix japonica = details: reproduction developmental
Rattus norvegicus = details: for LD50: acute, oral, mortality
Anas platyrhynchos = details: short-term; oral; feed; mortality
Apis mellifera = details: acute, mortality
Folsomia candida = details: chronic/long-term; duration: 28 days
[1] = reproduction developmental, reproduction

Structure (SMILES) | LR50 (Hypoaspis aculeifer) | LD50 (Colinus virginianus) | LC50 (Lepomis macrochirus) | LC50 (Tagia sp.; duration: 14 days) | NOEC (Tagia sp.) | NOAEL (Coturnix japonica) | LD50 (Rattus norvegicus) | NOAEL (Rattus norvegicus; [1]) | NOEL (Rattus norvegicus; [1]) | LC50 (Anas platyrhynchos) | LD50 (Apis mellifera; dermal) | LD50 (Apis mellifera; oral, unspecified) | LC50 (Tagia sp.) | LD50 (Rattus norvegicus; F) | NOAEC (Folsomia candida)
COC(=O)[N-]S(=O)(=O)c1ccc(N)cc1.[Na+] [Asulam-sodium] | > 4370 mg/kg | > 1830 mg/kg-day | > 91.3 µg/mL | 1000 mg/kg | 181 mg/kg | 65 mg/kg-day | > 4560 mg/kg-day | 46 mg/kg-day | 46 mg/kg-day | > 100000 mg/kg | > 100 µg/piece | > 124 µg/piece |  |  | 
Nc1ccc(S(N)(=O)=O)cc1 [Sulfanilamide] |  |  |  |  | 3.75 mg/kg |  |  |  |  |  |  |  | > 1000 mg/kg | > 2000 mg/kg-day | 50 mg/kg
